Each structure is given as a SMILES string.

For the first assay, the system named is human colon cancer cell line HCT116. Briefly: Measurement of cell proliferation inhibitory activity (Cell Counting Kit-8). The conditions noted are these: HCT116, 4 days incubation, Table 1-2; read-out: IC50 (50% proliferation inhibitory concentration). Format: cell-based. The procedure: The cell proliferation inhibitory activities of the compounds and salts shown in Tables 1-1, 1-2 and Table 2 were measured as follows, using the human colon cancer cell line HCT116 (American Type Culture Collection, VA, USA). 2000 to 3000 cells per well of the human colon cancer cell line HCT116 was placed in a 96-well culture plate, a predetermined concentration (0.00038 μM, 0.00076 μM, 0.0015 μM, 0.0031 μM, 0.0061 μM, 0.012 μM, 0.024 μM, 0.049 μM, 0.098 μM, 0.195 μM, 0.39 μM, 0.78 μM, 1.56 μM, 3.13 μM, 6.25 μM, 12.5 μM, 25 μM or 50 μM) of the test substance was added thereto, and the mixture was then incubated at 37° C. under 5% CO2 environment for 4 days. On day 4 of incubation, the Cell Counting Kit-8 solution (Dojindo Laboratories) was added, the absorbance (measurement wavelength: 450 nm; reference wavelength: 615 nm) was measured following the protocol attached to the kit, and the 50% proliferation inhibitory concentration (IC50) was calculated.
Background: Tetrazolium dyes change colour on reduction, which living cells bring about.
Turning to `Cc1c(Cc2ccccc2)c(=O)oc2cc(OC(=O)N(C)C)c(Cl)cc12` [Comp. 2, dimethylcarbamic acid 2-oxo-2H-3-benzyl-4-methyl-6-chloro-1-benzopyran-7-yl ester, reference compound], the IC50 turned out to be 1300 nM.

The assay is the same for the next values; noted with them: Homo sapiens, HCT-116, 96 h; HCT116, 4 days incubation, Table 1-1; read-out: IC50 (50% proliferation inhibitory concentration).
Turning to `CNS(=O)(=O)Nc1cccc(Cc2c(CF)c3cc(Cl)c(OC(=O)N(C)C)cc3oc2=O)c1` [Compound 1j-1-3-2F, Dimethylcarbamic acid 6-chloro-4-fluoromethyl-3-{3-(methylaminosulfonyl)aminobenzyl}-2-oxo-2H-1-benzopyran-7-yl ester], the IC50 worked out at 19.5 nM.

On to `Cc1c(Cc2cccc(NS(N)(=O)=O)c2F)c(=O)oc2cc(OC(=O)N(C)C)ccc12` [Compound 1j-1-4-1, Dimethylcarbamic acid 3-(3-aminosulfonylamino-2-fluoro-benzyl)-4-methyl-2-oxo-2H-1-benzopyran-7-yl ester], for which the IC50 turned out to be 17.6 nM.

On to `CNS(=O)(=O)Nc1cccc(Cc2c(C)c3ccc(OC(=O)N(C)C)cc3oc2=O)c1F` [Compound 1j-1-4-2, Dimethylcarbamic acid 3-(3-methylaminosulfonylamino-2-fluorobenzyl)-4-methyl-2-oxo-2H-1-benzopyran-7-yl ester], for which the IC50 was 9.3 nM.

On to `CNS(=O)(=O)Nc1cccc(Cc2c(CF)c3ccc(OC(=O)N(C)C)cc3oc2=O)c1F` [Compound 1j-1-4-2F, Dimethylcarbamic acid 3-(3-methylaminosulfonylamino-2-fluorobenzyl)-4-fluoromethyl-2-oxo-2H-1-benzopyran-7-yl ester], for which the IC50 was 10.6 nM.

`Cc1c(Cc2cccc(NS(N)(=O)=O)c2F)c(=O)oc2cc(OC(=O)N(C)C)c(F)cc12` [Compound 1j-1-5-1, Dimethylcarbamic acid 3-{2-fluoro-3-(aminosulfonyl)aminobenzyl}-6-fluoro-4-methyl-2-oxo-2H-1-benzopyran-7-yl ester]: the IC50 worked out at 8.3 nM.

On to `CNS(=O)(=O)Nc1cccc(Cc2c(C)c3cc(F)c(OC(=O)N(C)C)cc3oc2=O)c1F` [Compound 1j-1-5-2, Dimethylcarbamic acid 6-fluoro-4-methyl-3-{2-fluoro-3-(methylaminosulfonyl)aminobenzyl}-2-oxo-2H-1-benzopyran-7-yl ester], for which the IC50 turned out to be 2.9 nM.

Take `Cc1c(Cc2cccc(NS(N)(=O)=O)c2)c(=O)oc2cc(OC(=O)N(C)C)c(I)cc12` [Compound 1j-1-7-1, Dimethylcarbamic acid 3-{3-(aminosulfonyl)aminobenzyl}-6-iodo-4-methyl-2-oxo-2H-1-benzopyran-7-yl ester]: the IC50 is 11.4 nM.

As for `CNS(=O)(=O)Nc1cccc(Cc2c(C)c3cc(I)c(OC(=O)N(C)C)cc3oc2=O)c1` [Compound 1j-1-7-2, Dimethylcarbamic acid 6-iodo-4-methyl-3-{3-(methylaminosulfonyl)aminobenzyl}-2-oxo-2H-1-benzopyran-7-yl ester], the IC50 is 7.9 nM.

In the case of `CNS(=O)(=O)Nc1cccc(Cc2c(C)c3cc(C)c(OC(=O)N(C)C)cc3oc2=O)c1` [Compound 1j-1-8-2, Dimethylcarbamic acid 6-methyl-4-methyl-3-{3-(methylaminosulfonyl)aminobenzyl}-2-oxo-2H-1-benzopyran-7-yl ester], the IC50 is 21.7 nM.

For `CNS(=O)(=O)Nc1cccc(Cc2c(C)c3cc(C#N)c(OC(=O)N(C)C)cc3oc2=O)c1` [Compound 1j-1-9-2], the IC50 is 24.2 nM.

With `CNC(=O)CS(=O)(=O)Nc1cccc(Cc2c(C)c3cc(Cl)c(OC(=O)N(C)C)cc3oc2=O)c1` [Compound 1o-1-3-2, Dimethylcarbamic acid 3-(3-methylcarbamoylmethanesulfonylamino-benzyl)-6-chloro-4-methyl-2-oxo-2H-1-benzopyran-7-yl ester], the IC50 came out at 21 nM.

`Cc1c(Cc2cccc(NS(=O)(=O)CC(=O)N(C)C)c2)c(=O)oc2cc(OC(=O)N(C)C)c(Cl)cc12` [Compound 1o-1-3-3, Dimethylcarbamic acid 3-(3-dimethylcarbamoylmethanesulfonylamino-benzyl)-6-chloro-4-methyl-2-oxo-2H-1-benzopyran-7-yl ester]: the IC50 was found to be 16 nM.

Still in this assay, the particulars now being: Homo sapiens, HCT-116, 96 h; HCT116, 4 days incubation, Table 1-2; read-out: IC50 (50% proliferation inhibitory concentration).
With `CNS(=O)(=O)Nc1cc(Cc2c(C)c3ccc(OC(=O)N(C)C)cc3oc2=O)ccn1` [Compound 1j-1-10-2, Dimethylcarbamic acid 4-methyl-3-{2-(methylaminosulfonyl)aminopyridin-4-ylmethyl}-2-oxo-2H-1-benzopyran-7-yl ester], the IC50 was 31.9 nM.

As for `CNS(=O)(=O)Nc1cc(Cc2c(C)c3cc(F)c(OC(=O)N(C)C)cc3oc2=O)ccn1` [Compound 1j-1-11-2, Dimethylcarbamic acid 4-methyl-3-{2-(methylaminosulfonyl)aminopyridin-4-ylmethyl}-6-fluoro-2-oxo-2H-1-benzopyran-7-yl ester], the IC50 was 18.3 nM.

Consider `CNS(=O)(=O)Nc1cc(Cc2c(C)c3cc(Cl)c(OC(=O)N(C)C)cc3oc2=O)ccn1` [Compound 1j-1-12-2, Dimethylcarbamic acid 4-methyl-3-{2-(methylaminosulfonyl)aminopyridin-4-ylmethyl}-6-chloro-2-oxo-2H-1-benzopyran-7-yl ester], for which the IC50 came out at 6.4 nM.

Consider `CNS(=O)(=O)Nc1nccc(Cc2c(C)c3cc(F)c(Oc4ncccn4)cc3oc2=O)c1F` [Compound 1j-2-17-2, 3-{2-(methylaminosulfonyl)amino-3-fluoropyridin-4-ylmethyl}-4-methyl-6-fluoro-7-(pyrimidin-2-yloxy)-2-oxo-2H-1-benzopyran], for which the IC50 was determined as 21.1 nM.

`CNS(=O)(=O)Nc1nccc(Cc2c(C)c3cc(Cl)c(Oc4ncccn4)cc3oc2=O)c1F` [Compound 1j-2-18-2, 3-{2-(Methylaminosulfonyl)amino-3-fluoropyridin-4-ylmethyl}-4-methyl-6-chloro-7-(pyrimidin-2-yloxy)-2-oxo-2H-1-benzopyran]: the IC50 was 5.9 nM.

As to `CNS(=O)(=O)Nc1nccc(Cc2c(C)c3cc(C)c(Oc4ncccn4)cc3oc2=O)c1F` [Compound 1j-2-19-2, 3-{2-(Methylaminosulfonyl)amino-3-fluoropyridin-4-ylmethyl}-4-methyl-6-methyl-7-(pyrimidin-2-yloxy)-2-oxo-2H-1-benzopyran], the IC50 stood at 17.8 nM.

For `CCc1c(Cc2ccnc(NS(=O)(=O)NC)c2F)c(=O)oc2cc(Oc3ncccn3)c(C)cc12` [Compound 1j-2-19-2Me, 3-{2-(Methylaminosulfonyl)amino-3-fluoropyridin-4-ylmethyl}-4-ethyl-6-methyl-7-(pyrimidin-2-yloxy)-2-oxo-2H-1-benzopyran], the IC50 turned out to be 8.4 nM.

As to `Cc1c(Cc2cccc(NS(N)(=O)=O)c2F)c(=O)oc2cc(Oc3nccs3)ccc12` [Compound 1j-3-4-1, 3-{2-Fluoro-3-(aminosulfonyl)aminobenzyl}-4-methyl-7-(thiazol-2-yloxy)-2-oxo-2H-1-benzopyran], the IC50 is 22.5 nM.

Turning to `CNS(=O)(=O)Nc1cccc(Cc2c(C)c3ccc(Oc4nccs4)cc3oc2=O)c1F` [Compound 1j-3-4-2, 3-{2-Fluoro-3-(methylaminosulfonyl)aminobenzyl}-4-methyl-7-(thiazol-2-yloxy)-2-oxo-2H-1-benzopyran], the IC50 came out at 10.9 nM.

As for `CNS(=O)(=O)Nc1cc(Cc2c(C)c3cc(Cl)c(Oc4nccs4)cc3oc2=O)ccn1` [Compound 1j-3-12-2, 3-{2-(Methylaminosulfonyl)aminopyridin-4-ylmethyl}-4-methyl-6-chloro-7-(thiazol-2-yloxy)-2-oxo-2H-1-benzopyran], the IC50 was determined as 12.2 nM.

For `CNS(=O)(=O)Nc1nccc(Cc2c(C)c3cc(C)c(Oc4nccs4)cc3oc2=O)c1F` [Compound 1j-3-19-2, 3-{2-(Methylaminosulfonyl)amino-3-fluoropyridin-4-ylmethyl}-4-methyl-6-methyl-7-(thiazol-2-yloxy)-2-oxo-2H-1-benzopyran], the IC50 came to 1.5 nM.

Turning to `CNS(=O)(=O)Nc1cc(Cc2c(C)c3cc(C)c(Oc4nccs4)cc3oc2=O)ccn1` [Compound 1j-3-20-2, 3-{2-(Methylaminosulfonyl)aminopyridin-4-ylmethyl}-4-methyl-6-methyl-7-(thiazol-2-yloxy)-2-oxo-2H-1-benzopyran], the IC50 is 8.9 nM.

Consider `CNS(=O)(=O)Nc1nccc(Cc2c(C)c3cc(C)c(Oc4nccs4)cc3oc2=O)c1Cl` [Compound 1j-3-44-2, 3-{2-(Methylaminosulfonyl)amino-3-chloropyridin-4-ylmethyl}-4-methyl-6-methyl-7-(thiazol-2-yloxy)-2-oxo-2H-1-benzopyran], for which the IC50 came to 12.9 nM.
